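Grown in 96-well plates, cells were treated for 48 hours with each compound at five concentrations. Insufficient inhibition: endpoint recorded as highest concentration tested. The concentration for 50% growth inhibition is given as GI50.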 Activity calls are given as the source filed them. Rule as the data show it: active = GI50 up to about 1.1 µM and inactive = higher.
Tests used:
Test in all cases: NCI-60 cell line screen, 48 h
ACHN = system: ACHN
OVCAR-5 = system: OVCAR-5
MDA-MB-231 = system: MDA-MB-231
NCI-H522 = system: NCI-H522
NCI-H460 = system: NCI-H460
SW-620 = system: SW-620
IGROV-1 = system: IGROV-1
HT-29 = system: HT-29
SNB-19 = system: SNB-19
OVCAR-8 = system: OVCAR-8
SR = system: SR
SF-539 = system: SF-539
RXF 393 = system: RXF 393
HCC 2998 = system: HCC 2998
M14 = system: M14
SK-MEL-5 = system: SK-MEL-5
NCI/ADR-RES = system: NCI/ADR-RES
HCT-116 = system: HCT-116
Hs-578T = system: Hs-578T
DU-145 = system: DU-145
HOP-62 = system: HOP-62
A549 = system: A549
HOP-92 = system: HOP-92
SF-295 = system: SF-295
786-0 = system: 786-0
HCT-15 = system: HCT-15
UACC-257 = system: UACC-257
COLO 205 = system: COLO 205
MCF7 = system: MCF7
SNB-75 = system: SNB-75
K562 = system: K562
MDA-MB-435 = system: MDA-MB-435
CCRF-CEM = system: CCRF-CEM
U-251 = system: U-251
A498 = system: A498
CAKI-1 = system: CAKI-1
LOX IMVI = system: LOX IMVI
NCI-H226 = system: NCI-H226
HL-60 = system: HL-60
OVCAR-4 = system: OVCAR-4
Malme-3M = system: Malme-3M
BT-549 = system: BT-549
RPMI-8226 = system: RPMI-8226
SK-MEL-2 = system: SK-MEL-2
SF-268 = system: SF-268
NCI-H23 = system: NCI-H23
SN12C = system: SN12C
PC-3 = system: PC-3
KM12 = system: KM12
UO-31 = system: UO-31
EKVX = system: EKVX
TK-10 = system: TK-10
MOLT-4 = system: MOLT-4
MDA-N = system: MDA-N
OVCAR-3 = system: OVCAR-3
SK-MEL-28 = system: SK-MEL-28
UACC-62 = system: UACC-62
SK-OV-3 = system: SK-OV-3

CCC1(O)CN(CCOC)[C@H]2C[C@@H]1C(=O)c1[nH]c3ccccc3c12 (stereo not given in full)
GI50 (ACHN): > 100 µM (inactive)
GI50 (OVCAR-5): > 100 µM (inactive)
GI50 (MDA-MB-231): > 100 µM (inactive)
GI50 (NCI-H522): > 100 µM (inactive)
GI50 (NCI-H460): > 100 µM (inactive)
GI50 (SW-620): > 100 µM (inactive)
GI50 (IGROV-1): > 100 µM (inactive)
GI50 (HT-29): > 100 µM (inactive)
GI50 (SNB-19): > 100 µM (inactive)
GI50 (OVCAR-8): > 100 µM (inactive)
GI50 (SR): > 100 µM (inactive)
GI50 (SF-539): > 100 µM (inactive)
GI50 (RXF 393): > 100 µM (inactive)
GI50 (HCC 2998): > 100 µM (inactive)
GI50 (M14): > 100 µM (inactive)
GI50 (SK-MEL-5): > 100 µM (inactive)
GI50 (NCI/ADR-RES): > 100 µM (inactive)
GI50 (HCT-116): > 100 µM (inactive)
GI50 (Hs-578T): > 100 µM (inactive)
GI50 (DU-145): > 100 µM (inactive)
GI50 (HOP-62): > 100 µM (inactive)
GI50 (A549): > 100 µM (inactive)
GI50 (HOP-92): > 100 µM (inactive)
GI50 (SF-295): > 100 µM (inactive)
GI50 (786-0): > 100 µM (inactive)
GI50 (HCT-15): > 100 µM
GI50 (UACC-257): > 100 µM (inactive)
GI50 (COLO 205): > 100 µM (inactive)
GI50 (MCF7): > 100 µM (inactive)
GI50 (SNB-75): > 100 µM (inactive)
GI50 (K562): > 100 µM (inactive)
GI50 (MDA-MB-435): > 100 µM (inactive)
GI50 (CCRF-CEM): > 100 µM (inactive)
GI50 (U-251): > 100 µM (inactive)
GI50 (A498): > 100 µM (inactive)
GI50 (CAKI-1): > 100 µM (inactive)
GI50 (LOX IMVI): > 100 µM (inactive)
GI50 (NCI-H226): > 100 µM (inactive)
GI50 (HL-60): > 100 µM (inactive)
GI50 (OVCAR-4): > 100 µM (inactive)
GI50 (Malme-3M): > 100 µM (inactive)
GI50 (BT-549): > 100 µM (inactive)
GI50 (RPMI-8226): > 100 µM (inactive)
GI50 (SK-MEL-2): > 100 µM (inactive)
GI50 (SF-268): > 100 µM (inactive)
GI50 (NCI-H23): > 100 µM (inactive)
GI50 (SN12C): > 100 µM (inactive)
GI50 (PC-3): > 100 µM (inactive)
GI50 (KM12): > 100 µM (inactive)
GI50 (UO-31): > 100 µM (inactive)
GI50 (EKVX): > 100 µM (inactive)
GI50 (TK-10): > 100 µM (inactive)
GI50 (MOLT-4): > 100 µM (inactive)
GI50 (MDA-N): > 100 µM (inactive)
GI50 (OVCAR-3): > 100 µM (inactive)
GI50 (SK-MEL-28): > 100 µM (inactive)

C=C1c2nc3ccccc3n2C=C(c2ccc(Cl)cc2)N1c1ccc(OC)cc1
GI50 (UACC-62): 13 µM (inactive)
GI50 (ACHN): 3.56 µM (inactive)
GI50 (OVCAR-5): 17.4 µM (inactive)
GI50 (SK-OV-3): 10.7 µM (inactive)
GI50 (MDA-MB-231): 12.7 µM (inactive)
GI50 (NCI-H522): 4 µM (inactive)
GI50 (NCI-H460): 6.47 µM (inactive)
GI50 (SW-620): 17.7 µM (inactive)
GI50 (IGROV-1): 6.27 µM (inactive)
GI50 (SNB-19): 3.44 µM (inactive)
GI50 (OVCAR-8): 4.43 µM (inactive)
GI50 (SR): 11.2 µM (inactive)
GI50 (SF-539): 5.87 µM (inactive)
GI50 (RXF 393): 10.1 µM (inactive)
GI50 (HCC 2998): 8.85 µM (inactive)
GI50 (M14): 7.8 µM (inactive)
GI50 (SK-MEL-5): 6.53 µM (inactive)
GI50 (NCI/ADR-RES): 3.48 µM (inactive)
GI50 (HCT-116): 6.97 µM (inactive)
GI50 (DU-145): 15.6 µM (inactive)
GI50 (A549): 10.9 µM (inactive)
GI50 (HOP-92): 10.3 µM (inactive)
GI50 (SF-295): 6.19 µM (inactive)
GI50 (786-0): 4.39 µM (inactive)
GI50 (HCT-15): 10.1 µM
GI50 (UACC-257): 5.07 µM (inactive)
GI50 (COLO 205): 21.8 µM (inactive)
GI50 (MCF7): 7.4 µM (inactive)
GI50 (SNB-75): 2.67 µM (inactive)
GI50 (K562): 25.6 µM (inactive)
GI50 (MDA-MB-435): 8.28 µM (inactive)
GI50 (CCRF-CEM): > 100 µM (inactive)
GI50 (U-251): 8.38 µM (inactive)
GI50 (A498): 20.6 µM (inactive)
GI50 (CAKI-1): 4.58 µM (inactive)
GI50 (LOX IMVI): 36.9 µM (inactive)
GI50 (NCI-H226): 5.46 µM (inactive)
GI50 (HL-60): 76.7 µM (inactive)
GI50 (OVCAR-4): 6 µM (inactive)
GI50 (Malme-3M): 2.82 µM (inactive)
GI50 (BT-549): 2.67 µM (inactive)
GI50 (RPMI-8226): 14.5 µM (inactive)
GI50 (SK-MEL-2): 22.9 µM (inactive)
GI50 (NCI-H23): 9.95 µM (inactive)
GI50 (SN12C): 11.9 µM (inactive)
GI50 (PC-3): 15.4 µM (inactive)
GI50 (KM12): 6.81 µM (inactive)
GI50 (UO-31): 6.38 µM (inactive)
GI50 (EKVX): 8.51 µM (inactive)
GI50 (TK-10): 4.82 µM (inactive)
GI50 (MOLT-4): 73.1 µM (inactive)
GI50 (MDA-N): 13.2 µM (inactive)
GI50 (OVCAR-3): 10.8 µM (inactive)
GI50 (SK-MEL-28): 7.57 µM (inactive)

Source: ChEMBL document CHEMBL1201862, “PubChem BioAssay data set” (2004)
